System: human monocyte stimulated cytokine production (TNF-α)
Test: Monocyte assay (LPS-stimulated TNF-α production)
Assay type: cell-based
Settings: human CD14+ monocytes, 200 ng/mL LPS, 24 hrs, values given as 'about', read-out: pIC50 in the monocyte assay (converted)
Protocol: Effect of IKK-β inhibition on human monocyte stimulated cytokine production was assessed as follows: Monocytes were isolated from heparinized whole blood by Ficoll gradient, followed by purification of CD14+ cells using MACS magnetic cell separation beads. Isolated monocytes were then adhered to 96-well culture plates at 1×10^6 cells/mL in RPMI 1640 10% FBS (JRH Biosciences, Lenexa Kans.) for 2 h. Test compounds are added to the wells 30 minutes prior to stimulation with a final vehicle concentration of 0.1% DMSO. Monocytes were activated by the addition of 200 ng/mL endotoxin (LPS; E. coli serotype 026:B6) (Sigma, St. Louis, Mo.) and incubated for 24 hrs at 37 C. Cell-free supernates were analyzed by Alphascreen™ (Perkin Elmer, Waltham, Mass.) for TNF-α using R&D Systems matched pair Abs. Viability of the cells was determined by 10% trypan blue exclusion.

| Structure (SMILES) | IC50 [µM] |
| --- | --- |
| CC1(C)CC(c2c[nH]c3c(C(N)=O)cc(-c4ccc(S(=O)(=O)N5CCCC5)s4)cc23)CCS1(=O)=O (centres unmarked) [Example 239, 3-(2,2-Dimethyl-1,1-dioxidotetrahydro-2H-thiopyran-4-yl)-5-[5-(1-pyrrolidinylsulfonyl)-2-thienyl]-1H-indole-7-carboxamide] | 0.00501 to 1 |
| CC1(C)CC(c2c[nH]c3c(C(N)=O)cc(-c4ccc(S(=O)(=O)C5CCCC5)s4)cc23)CCS1(=O)=O (centres unmarked) [Example 240, 5-[5-(Cyclopentylsulfonyl)-2-thienyl]-3-(2,2-dimethyl-1,1-dioxidotetrahydro-2H-thiopyran-4-yl)-1H-indole-7-carboxamide] | 0.00501 to 1 |
| NC(=O)c1cc(-c2ccsc2)cc2c([C@@H]3CCS(=O)(=O)[C@H](c4ccccc4)C3)c[nH]c12 [Example 247, 3-[(2S,4R)1,1-dioxido-2-phenyltetrahydro-2H-thiopyran-4-yl]-5-(3-thienyl)-1H-indole-7-carboxamide] | 0.00501 to 1 |
| NC(=O)c1cc(-c2ccsc2)cc2c([C@H]3CCS(=O)(=O)[C@@H](c4ccccc4)C3)c[nH]c12 [Example 248, 3-[(2R,4S)1,1-dioxido-2-phenyltetrahydro-2H-thiopyran-4-yl]-5-(3-thienyl)-1H-indole-7-carboxamide] | > 1 |
| NC(=O)c1cc(-c2ccccc2)cc2c(CC3CCS(=O)(=O)C3)c[nH]c12 (centres unmarked) [Example 259, 3-[(1,1-Dioxidotetrahydro-3-thienyl)methyl]-5-phenyl-1H-indole-7-carboxamide] | 0.00501 to 1 |

Continued, values first:

| IC50 [µM] | Structure (SMILES) |
| --- | --- |
| 0.00501 to 1 | CC1(C)CC(c2c[nH]c3c(C(N)=O)cc(-c4csc(CN5CCC5)c4)cc23)CCS1(=O)=O (centres unmarked) [Example 234, 5-[5-(1-Azetidinylmethyl)-3-thienyl]-3-(2,2-dimethyl-1,1-dioxidotetrahydro-2H-thiopyran-4-yl)-1H-indole-7-carboxamide] |
| 0.00501 to 1 | CC1(C)CC(c2c[nH]c3c(C(N)=O)cc(-c4ccc(CN5CCCC5)s4)cc23)CCS1(=O)=O (centres unmarked) [Example 235, 3-(2,2-Dimethyl-1,1-dioxidotetrahydro-2H-thiopyran-4-yl)-5-[5-(1-pyrrolidinylmethyl)-2-thienyl]-1H-indole-7-carboxamide] |
| 0.00501 to 1 | NC(=O)c1cc(-c2ccoc2)cc2c(CC3CCS(=O)(=O)CC3)c[nH]c12 [Example 253, 3-[(1,1-dioxidotetrahydro-2H-thiopyran-4-yl)methyl]-5-(3-furanyl)-1H-indole-7-carboxamide] |
| 0.00501 to 1 | NC(=O)c1cc(-c2csc(CN3CCCCCC3)c2)cc2c(CC3CCS(=O)(=O)CC3)c[nH]c12 [Example 258, 3-[(1,1-dioxidotetrahydro-2H-thiopyran-4-yl)methyl]-5-[5-(hexahydro-1H-azepin-1-ylmethyl)-3-thienyl]-1H-indole-7-carboxamide] |
| 0.00501 to 1 | NC(=O)c1cc(-c2ccsc2)cc2c(CC3CCS(=O)(=O)C3)c[nH]c12 (centres unmarked) [Example 260, 3-[(1,1-Dioxidotetrahydro-3-thienyl)methyl]-5-(3-thienyl)-1H-indole-7-carboxamide] |
| 0.00501 to 1 | CN(C)Cc1cc(-c2cc(C(N)=O)c3[nH]cc(CC4CCS(=O)(=O)C4)c3c2)cs1 (centres unmarked) [Example 261, 5-{5-[(Dimethylamino)methyl]-3-thienyl}-3-[(1,1-dioxidotetrahydro-3-thienyl)methyl]-1H-indole-7-carboxamide] |

From patent US8071584B2 (GlaxoSmithKline LLC, priority 2007, dated 2011)
